Reference: the NIST ThermoML archive (doi:10.1007/s10765-007-0186-y)

Experiment: molar heat capacity at constant pressure
Details: Gas, Flow calorimetry

CC(F)(F)F [1,1,1-trifluoroethane]
Details | molar heat capacity at constant pressure [J/K/mol]
311.15 K, 1600 kPa | 120.18
317.15 K, 1800 kPa | 125.89
318.15 K, 1600 kPa | 111.77
318.15 K, 2000 kPa | 139.51
324.15 K, 2200 kPa | 145.31
326.15 K, 2400 kPa | 161.69
327.15 K, 2400 kPa | 160.77
338.15 K, 2400 kPa | 130.6
341.15 K, 2200 kPa | 117.24
343.15 K, 2400 kPa | 124.8
